Data set [1] has as its system Gram-positive bacteria (S. aureus, S. epidermidis). The data set can be described thus: Geometric mean of MICs against Gram-positive bacteria. Set-up: unit not given here. It counts as cell-based. The essentials:
(§1)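 Modified CLSI broth microdilution: mid-log bacteria from LB culture were adjusted to 1 × 10^6 CFU/mL and mixed 1:1 with peptide serially diluted in PBS. After 18 to 20 h at 37 °C, growth was read as absorbance at 600 nm.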

The next data set relates to five bacterial strains. Briefly: MICs against all five bacterial strains (geometric mean, range). It counts as cell-based. Set-up: unit not given here. The following applies: geometric mean of MICs against all five bacterial strains. The essentials: as §1
In the next data set the test system is E. coli. The data set can be described thus: Membrane damage, PI staining and flow cytometry. The conditions noted are these: 6.25 μM peptide, 30 min. It counts as cell-based, Escherichia coli. How it is done:
(§2) Propidium iodide (PI) was utilized as a marker for assessing the structural integrity of cell membranes and the occurrence of cell death. The impact of peptides on BEAS-2B cells, E. coli, and S. aureus was investigated by treating the cells with peptides followed by PI staining and flow cytometry (FACS) analysis to evaluate peptide-induced membrane damage. Table 5 presents the results of PI staining in BEAS-2B cells (1 × 10^6) following treatment with peptides at a concentration of 6.25 μM. […] FACS analysis at a peptide concentration of 6.25 μM was employed to determine the membrane damage caused by peptides in E. coli and S. aureus cells (Table 5).
(§3) Peptide-induced membrane damage was evaluated by quantifying the influx of propidium iodide (PI). BEAS-2B cells (1 × 10^6 cells in 50 μL) were exposed to a final concentration of 6.25 μM peptide and incubated at 37 °C for 30 min, followed by PBS washing and re-suspension in PI solution (dissolved in PBS) at a final concentration of 2 μg/mL. Bacteria were cultured to mid-log phase at 37 °C, then diluted to an OD600 of 0.5 in phosphate-buffered saline (PBS). […] The bacteria were harvested and re-suspended in PI solution, with fluorescence signal analysis conducted using flow cytometry (Cytomics FC 500, Beckman Coulter, Indianapolis, IN, USA).

In the next data set the test system is S. aureus. The data set can be described thus: Membrane damage, PI staining and flow cytometry. It counts as cell-based, Staphylococcus aureus. The conditions noted are these: 6.25 μM peptide, 30 min. The procedure: as §2, §3
A short description of data set [2]: CD spectra, secondary structure by BeStSel. It counts as physicochemical. The conditions noted are these: 30 μM SDS as printed, 100 μM peptide, 25 °C. The essentials: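 Far-UV CD spectra (190–250 nm) of peptides at 100 μM in SDS, 0.1 cm cells, 25 °C under nitrogen. Secondary-structure content derived from spectra by BeStSel deconvolution.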

Ends that are not written are not given here.

LKRVWKRVFKLKKRYWRQLKKPVR-NH2 [SAAP-7]: the “GM to G+” value in data set [1] was 35.36. Further, in the data set with five bacterial strains, the “MIC (GM)” value was found to be 16.49. In the data set on E. coli, the “percentage of PI-positive cells, E. coli” value was 34.9%. Moreover, the “percentage of PI-positive cells, S. aureus” value in the data set with S. aureus is reported as 21.1%. In data set [2], this substance gave an Others of 3.4%, a Turn of 0%, a α-Helix of 48.3% and a β-Antiparallel of 48.3%. Besides, in data set [2], the β-Parallel is recorded as 0%.

These data come from publication PMC11546786, “Designing Analogs of SAAP-148 with Enhanced Antimicrobial and Anti-LPS Activities” (International Journal of Molecular Sciences, 2024).
